# According to publication PMC12738692, “Identification, characterization, and structure-activity relationship of the ASIC3-selective peptide WRPRFa” (Communications Chemistry, 2025):
# Residue numbers refer to the chain shown, from its start. Where no end group is shown, it is not given here.
# Tests used:
# Type in all cases: cell-based
# [1] = target: T1, ASIC313 (Homo sapiens, UniProt Q9UHC3); assay: MPC WRPRFa concentration-response on concatemer ASIC313; details: read-out: lower limit EC50
# T1 construct: placing human ASIC1a and human ASIC3 ORFs in tandem; P2A-mCherry reporter (C, cleaved yes); expressed in transfected cells; host or cells: WT CHO cells (85050302, Sigma), transient transfection
# T1 sequence (Q9UHC3 1-531) 1: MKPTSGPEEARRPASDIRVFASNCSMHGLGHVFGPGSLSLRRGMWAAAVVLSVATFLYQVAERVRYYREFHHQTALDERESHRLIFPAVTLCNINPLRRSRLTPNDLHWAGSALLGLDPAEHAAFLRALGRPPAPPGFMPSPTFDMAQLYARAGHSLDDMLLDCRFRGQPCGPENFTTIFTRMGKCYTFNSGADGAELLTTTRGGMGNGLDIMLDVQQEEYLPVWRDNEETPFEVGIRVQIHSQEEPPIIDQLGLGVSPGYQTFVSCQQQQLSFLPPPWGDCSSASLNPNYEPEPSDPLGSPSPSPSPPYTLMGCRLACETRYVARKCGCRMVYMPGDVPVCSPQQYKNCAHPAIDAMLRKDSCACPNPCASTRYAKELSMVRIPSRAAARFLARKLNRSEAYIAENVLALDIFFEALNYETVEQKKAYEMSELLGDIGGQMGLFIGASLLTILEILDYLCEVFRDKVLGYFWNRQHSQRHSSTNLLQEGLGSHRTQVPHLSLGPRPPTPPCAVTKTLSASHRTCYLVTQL
# T1 sequence (Q9UHC3 1-531) 2: T1 sequence (Q9UHC3 1-531) 1
# Text: (§1) For peptide concentration-response curves, Bottom was set to 0 and Top was constrained to ≤ 1 for peptides that approached plateau phase or where I3s/Ipk reached 1. […] For activation- or desensitization-pH curves, Bottom was set to 0 and Top constrained to 1.
# [2] = target: T2, ASIC3 E78Q (Homo sapiens, UniProt Q9UHC3, E78Q); assay: MPC peptide activity on ASIC3 E78Q mutant (I3s/Ipk, peak current, double mutant cycle); details: read-out: EC50 (95% CI)
# T2 construct: human ASIC3 (NM_004769.4); P2A-mCherry reporter (C, cleaved yes); expressed in transfected cells; host or cells: CHO cells (85050302, Sigma), transient transfection
# T2 sequence (Q9UHC3 1-531 E78Q): T1 sequence (Q9UHC3 1-531) 1 with E78Q
# Text: We then asked which of the two WRPRFa arginines interacts with the E78/E421 pair. […] To this end, we used a double mutant cycle approach to identify coupling between site 2 or site 4 of WRPRFa with the E78/E421 pair. In this case, the double mutant cycle experiment compared the change in potency caused by single mutations in either WRPRFa or ASIC3 against the change in potency caused by simultaneous mutations in WRPRFa and ASIC3. A coupling coefficient (Ω) can be calculated by dividing the product of the WT/WRPRFa potency and double mutant potency by the product of the two single mutant potencies.
# as §1
# [3] = target: T3, human ASIC3 (Homo sapiens, UniProt Q9UHC3); assay: pH-dependence of steady-state desensitization (SSD) of ASIC3; details: conditioning pH 7.0, 30 µM
# T3 construct: CHO cells stably expressing human ASIC3 (NM_004769.1)
# T3 sequence (Q9UHC3 1-531): T1 sequence (Q9UHC3 1-531) 1
# Experimental: Lastly, we tested the effect of 30 µM WRPRFa on SSD of ASIC3. First, we sought to determine if, like activation, WRPRFa also changed the pH-dependence of steady-state desensitization for ASIC3. We preconditioned cells at pH 8.0–7.0 for 20 s to elicit SSD, followed immediately by a test pulse to pH 6.3 (Fig. 7F and G) to measure the fraction of channels that were not desensitized. The current evoked by each pH 6.3 test pulse was normalized to the pH 6.3 pulse following pH 8.0 conditioning and plotted against the conditioning pH to determine the pH-dependence of SSD. For untreated cells, the peak current (Ipk) was recorded, and for WRPRFa-treated cells, the current 3 s after the peak (I3s) was used. Untreated channels were completely desensitized at pH 7.0, while the WRPRFa-treated channels reached a plateau at pH 7.0 with about 30% of channels desensitized. […] The 0.11 unit shift is larger than that reported for RPRFa (0.03 unit shift)[30].
# [4] = target: T4, ASIC3 E378Q (Homo sapiens, UniProt Q9UHC3, E378Q); assay: MPC peptide activity on ASIC3 E378Q mutant; details: read-out: EC50 (95% CI)
# T4 construct: human ASIC3 (NM_004769.4); P2A-mCherry reporter (C, cleaved yes); expressed in transfected cells; host or cells: CHO cells (85050302, Sigma), transient transfection
# T4 sequence (Q9UHC3 1-531 E378Q): T1 sequence (Q9UHC3 1-531) 1 with E378Q
# Experimental: We individually mutated the four glutamates to glutamine to remove their charge but maintain the side chain structure (Fig. 4C). We tested each mutant by incubating HEK cells stably expressing ASIC3 or CHO cells transfected with mutant ASIC3 with 30 µM WRPRFa before a pH 6.3 acid stimulus.
# All mutagenesis was performed at Genscript, and sequences were verified by nanopore sequencing by Plasmidsaurus (Eugene, OR). The numbering of ASIC3 amino acids is based on RefSeq NP_004760.1. Plasmids were transfected into CHO cells using Lipofectamine 3000 (Thermo) according to the manufacturer’s protocol. Cells were used for patch-clamp recordings 24–48 h after transfection.
# CHO and HEK cells were tested in the whole-cell configuration on MPC platforms using an Axopatch 200B amplifier (Axon Instruments, San Jose, CA) and a Digidata 1322A or Digidata 1440A digitizer (Axon) using pClamp 9.2 or 10.7 (Molecular Devices, San Jose, CA), respectively. When testing transfected cells, red fluorescence from the cleaved mCherry reporter was used to identify cells expressing ASIC3, ASIC131, or ASIC313. For cells expressing transfected ASIC1a or ASIC2a, the green signal from the cleaved eGFP reporter was used. All electrophysiology data were analyzed with Clampfit 11.1 (Molecular Devices).
substance,measurement,setting,value
WRPRF-NH2 [WRPRFa],EC50,[1],≥ 12.6 µM
same,EC50,[2],0.206 µM
same,channels desensitized at plateau,[3],about 30%
same,EC50,[4],9.59 µM
